Measured values taken from patent US20070213291A1, “Therapeutically useful synthetic oligonucleotides” (priority 1999, published 2007).

Assays:
Type in all cases: cell-based
[1] = system: Jurkat human leukemia T cells; assay: Inhibition of Jurkat human leukemia T cell proliferation (MTT reduction); conditions: 100 μg/ml sequence, 48 h, 2.5×10^5 cells/ml
How it was run: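 Read-out is MTT absorbance at 570 nm after 48 h. Sequences of 2 to 45 bases (A, C, G, T) tested at 100 μg/ml against untreated control, with 2.5×10^5 Jurkat cells/ml held at 37° C under 5% CO2.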

[2] = system: Jurkat human leukemia T cells; assay: Apoptosis by phosphatidylserine/annexin V-FITC flow cytometry; conditions: 50 μM sequence
Protocol: (§1) The redistribution of phosphatidylserine in the plasma membrane during apoptosis was measured by flow cytometry using FITC-conjugated annexin V (BD Pharmingen, San Diego, Calif.). NuMA release into the supernatant was determined using a commercial ELISA kit (Oncogen/Calbiochem, Cambridge, Mass.).
Jurkat human leukemia T cells were incubated with 50 μM of 3, 4, 5, 6 and 7 GT base sequences, a 5 base ACGT sequence, 6 base AG, GG, AGT and CGT sequences and a 7 base GG sequence. […]
Jurkat human leukemia T cells were incubated with GT-rich or AC-rich sequences derived from the murA gene of Mycobacterium phlei (GenBank: Accession Number X99776). Inhibition of proliferation was measured by the reduction of MTT as in Example 3, cell cycle arrest was detected by flow cytometry using propidium iodide as in Example 21 and apoptosis was evaluated by flow cytometry using annexin-V-FITC as in Example 23.

[3] = system: Jurkat human leukemia T cells; assay: NuMA release into supernatant (ELISA); conditions: for % NuMA released (treated vs untreated cells): Jurkat, 50 μM sequence
Protocol: as §1
Jurkat human leukemia T cells were incubated with 50 μM of 3, 4, 5, 6 and 7 GT base sequences, a 5 base ACGT sequence, 6 base AG, GG, AGT and CGT sequences and a 7 base GG sequence.
Jurkat human leukemia T cells (1×10^6/ml) were incubated with 6 and 27 GT base sequences (Table 32). NuMA was determined as in Example 23.
Jurkat human cell leukemia T cells were incubated for 24 h with 6 base GT SEQ ID NO:25, complementary 6 base AC SEQ ID NO:79, and 6 base GT SEQ ID NO:25+6 base AC SEQ ID NO:79. GT SEQ ID NO:25 and AC SEQ ID NO:79 were hybridized by mixing the sequences (1:1) and heating for 10 minutes at 65° C. As controls, GT SEQ ID NO:25 and AC SEQ ID NO:79 were heated for 10 minutes at 65° C. (Table 33). Apoptosis was evaluated as in Example 23.

[4] = system: Jurkat human leukemia T cells; assay: Cell cycle stage in Jurkat cells (propidium iodide flow cytometry); conditions: Jurkat, 24 h, 100 μg/ml
How it was run: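 Phase distribution (G0/G1, early, mid and late S, G2/M) came from flow cytometry with doublet discrimination on propidium iodide-stained nuclei. Jurkat cells were given 24 h exposure to 2–45-base oligonucleotides, or at 1×10^6 cells/ml to single 6-base GT or AC strands heated 10 min at 65 °C or 1:1 hybridized duplex.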

[5] = system: MCF-7 human breast cancer cells; assay: Inhibition of MCF-7 cell proliferation (MTT); conditions: 100 μg/ml, 48 h, 5×10^5 cells/ml
Protocol: (§2) Cells were seeded in 6 (1 ml/well), 24 (0.5 ml/well) or 96 (0.1 ml/well) well flat-bottom microplates and were maintained at 37° C. in a 5% CO2 atmosphere. Unless stated otherwise, 2.5×10^5 cells/ml were incubated with 0 μg/ml (control) and 100 μg/ml (treated) of 2 to 45 base sequences containing A, C, G and T for 48 h.
(§3) Cell proliferation was measured using dimethylthiazol-diphenyl-tetrazolium (MTT) reduction (Mosman et al. J. Immunol. Methods 65:55, 1983). MTT was measured at a wavelength of 570 nm using a multiplate spectrophotometer reader (ELX800, Bio-TEK Instruments Inc., Winooski, Vt.).
MCF-7 human breast cancer cells are a caspase 3 negative, estrogen-dependent human solid tumor model. MCF-7 cells (5×10^5 cells/ml) were incubated with 3 and 6 base GT sequences (Table 7).

[6] = system: LNCaP human prostate cancer cells; assay: Inhibition of LNCaP cell proliferation (MTT); conditions: 100 μg/ml, 48 h, 5×10^5 cells/ml
Protocol: as §2, §3
LNCaP prostate cancer cells are a TGF-beta 1 receptor negative, […], metastatic human solid tumor model. LNCaP cells (5×10^5 cells/ml) were incubated with 6 base GT sequences (Table 9).

[7] = system: THP-1 human acute monocytic leukemia cells; assay: Cytokine production by THP-1 cells (ELISA); conditions: THP-1, 1×10^6 cells, 100 μg/ml, 48 h; p70 complex and free p40
How it was run: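 Read-out is fold increase in supernatant cytokine versus control cells, measured by ELISA (IL-12 ELISA counts p70 complex plus free p40). Unless noted, sequences were tested at 100 μg/ml on 1×10^6 cells, incubated 48 h, 37° C, 5% CO2.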

Row | Sequence | % INHIBITION of Jurkat human leukemia T cell proliferation [1] [%] | % of cells in apoptosis (positive for PS/A-V staining) [2] [%] | % NuMA released (treated vs untreated cells) [3] [%] | further results
1 | GGGGTGG (unmodified DNA) [SEQ ID NO:62] | 41 | 30 | 123 | –
2 | GGGTG (unmodified DNA) [SEQ ID NO:61] | 50 | 25 | 92 | –
3 | GGGTGGGTGGGTGGGTGGGTGGGTGGG [SEQ ID NO:2] | 23 | – | – | % of cells in phase: G0/G1 [4]: 34.3%; % of cells in phase: G2/M [4]: 26.4%; % of cells in phase: SE [4]: 15.5%; % of cells in phase: SL [4]: 10.3%; % of cells in phase: SM [4]: 13.6%; Arrest (cell cycle) [4]: None; % NUMA RELEASED ([3]; Jurkat 1×10^6/ml): 49%
4 | GGTG (unmodified DNA) [SEQ ID NO:56] | 54 | 24 | 112 | –
5 | GGTGG (unmodified DNA) [SEQ ID NO:60] | 50 | 25 | 120 | –
6 | GGTGGG [SEQ ID NO:24 phosphorothioate] | 6 | – | – | % INHIBITION of MCF-7 human breast cancer cell proliferation [5]: 12%; % INHIBITION of LNCaP human prostate cancer cell proliferation [6]: −17%; ↑ IL-12 (fold increase treated vs control cells) [7]: −0.1x
7 | GTGG (unmodified DNA) [SEQ ID NO:52] | 52 | 24 | 60 | –
8 | GTGTGT [SEQ ID NO:10 phosphorothioate] | 0 | – | – | % INHIBITION of MCF-7 human breast cancer cell proliferation [5]: 12%; % INHIBITION of LNCaP human prostate cancer cell proliferation [6]: −20%; ↑ IL-12 (fold increase treated vs control cells) [7]: −0.2x
